Reference: patent US20230085307A1, “PYRIDAZINONE COMPOUND AND HERBICIDE” (NISSAN CHEMICAL CORPORATION, priority 2019, published 2023)

Legend:
blackgrass = test: Test Example 4: herbicidal effect by soil treatment (Table 19, symbol J); assay type: in vivo, blackgrass (Alopecurus myosuroides)
How it was run: (§1)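 Soil-surface application: an emulsion agent diluted with water to the predetermined dose is sprayed uniformly over seeds lying under roughly 1.5 cm of sterilized diluvial soil. Boxes stay in a greenhouse at 25° C. to 30° C. Three weeks later, each species is graded on previously defined criteria.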

windgrass = test: Test Example 4: herbicidal effect by soil treatment (Table 19, symbol L); assay type: in vivo, windgrass (Apera spica-venti)
How it was run: as §1

Chinese sprangletop = test: Test Example 3: herbicidal effect by foliage application, Wagner pot (Table 18, symbol D); assay type: in vivo, chinese sprangletop (Leptochloa chinensis); conditions: 320 g/ha
How it was run: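 Plants were sown in alluvial soil held under 0.1–0.5 cm standing water and grown 14 days in a greenhouse at 25–30 °C. An emulsifiable formulation, water-diluted to the set dose, was then sprayed onto the foliage, and effects were scored three weeks later using previously defined criteria.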

late watergrass = test: Test Example 2: herbicidal activity, application during weed generation under submerged conditions (Table 17, symbol A); assay type: in vivo, late watergrass (Echinochloa oryzicola); conditions: AAH 320 g/ha; application during weed generation, submerged conditions
How it was run: (§2)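 Effect on each weed is rated three weeks post-treatment, using the same scoring criteria as the preceding test. Plants grow from mixed-sown seed in flooded alluvial soil (4 cm water) at 25° C. to 30° C., and are treated at one to two leaves with diluted emulsion dropped onto the water.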

redroot pigweed = test: Test Example 5: herbicidal effect by foliage application, plastic box (Table 20, symbol N); assay type: in vivo, redroot pigweed (Amaranthus retroflexus); conditions: foliage application, 320 g/ha, three weeks after application
How it was run: (§3)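 Sow seeds spot-wise in sterilized diluvial soil; cover with ~1.5 cm soil. Grow 14 days in greenhouse, 25° C. to 30° C. Spray foliage with emulsion diluted to predetermined amount. Rate effect after 3 weeks.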

Italian ryegrass [1] = test: Test Example 5: herbicidal effect by foliage application, plastic box (Table 20, symbol K); assay type: in vivo, Italian ryegrass (Lolium multiflorum); conditions: foliage application, 320 g/ha; for herbicidal effect grade, K: Italian ryegrass: three weeks after application
How it was run: as §3

oval-leafed pondweed = test: Test Example 2: herbicidal activity, application during weed generation under submerged conditions (Table 17, symbol C); assay type: in vivo, oval-leafed pondweed (Monochoria vaginalis); conditions: AAH 320 g/ha; application during weed generation, submerged conditions
How it was run: as §2

lambsquarters [2] = test: Test Example 5: herbicidal effect by foliage application, plastic box (Table 20, symbol O); assay type: in vivo, lambsquarters (Chenopodium album); conditions: foliage application, 320 g/ha; for herbicidal effect grade, O: lambsquarters: three weeks after application
How it was run: as §3

Italian ryegrass [3] = test: Test Example 4: herbicidal effect by soil treatment (Table 19, symbol K); assay type: in vivo, Italian ryegrass (Lolium multiflorum)
How it was run: as §1

southern crabgrass = test: Test Example 4: herbicidal effect by soil treatment (Table 19, symbol F); assay type: in vivo, southern crabgrass (Digitaria ciliaris)
How it was run: as §1

wild oat = test: Test Example 4: herbicidal effect by soil treatment (Table 19, symbol I); assay type: in vivo, wild oat (Avena fatua)
How it was run: as §1

Japanese bulrush = test: Test Example 1: herbicidal activity, application before weed generation under submerged conditions (Table 16, symbol B); assay type: in vivo, Japanese bulrush (Schoenoplectus juncoides); conditions: 320 g/ha applied herbicide
How it was run: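 Emulsion formulation, water-diluted to set dose, was put onto the flooded surface (4 cm depth, alluvial soil) the same day weeds were sown and 2.5-leaf rice transplanted. After 3 weeks at 25-30 °C under glass, each species was rated 0 (≤5% kill) to 5 (≥90% kill).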

velvetleaf = test: Test Example 5: herbicidal effect by foliage application, plastic box (Table 20, symbol M); assay type: in vivo, velvetleaf (Abutilon theophrasti); conditions: foliage application, 320 g/ha; for herbicidal effect grade, M: velvetleaf: three weeks after application
How it was run: as §3

green foxtail = test: Test Example 5: herbicidal effect by foliage application, plastic box (Table 20, symbol G); assay type: in vivo, green foxtail (Setaria viridis); conditions: foliage application, 320 g/ha; for herbicidal effect grade, G: green foxtail: three weeks after application
How it was run: as §3

lambsquarters [4] = test: Test Example 4: herbicidal effect by soil treatment (Table 19, symbol O); assay type: in vivo, lambsquarters (Chenopodium album)
How it was run: as §1

chickweed = test: Test Example 5: herbicidal effect by foliage application, plastic box (Table 20, symbol P); assay type: in vivo, common chickweed (Stellaria media); conditions: foliage application, 320 g/ha, three weeks after application
How it was run: as §3

[5] = amount of applied herbicide 320 g/ha

SMILES | herbicidal effect rating, J: blackgrass (blackgrass; [5]) | herbicidal effect rating, L: windgrass (windgrass; [5]) | herbicidal effect on D (Chinese sprangletop), rating 0-5 (Chinese sprangletop) | herbicidal effect rating, A: late watergrass (late watergrass) | herbicidal effect grade, N: redroot pigweed (redroot pigweed) | herbicidal effect grade, K: Italian ryegrass (Italian ryegrass [1]) | herbicidal effect rating, C: oval-leafed pondweed (oval-leafed pondweed) | herbicidal effect grade, O: lambsquarters (lambsquarters [2]) | herbicidal effect rating, K: Italian ryegrass (Italian ryegrass [3]; [5]) | herbicidal effect rating, F: southern crabgrass (southern crabgrass; [5]) | herbicidal effect rating, I: wild oat (wild oat; [5]) | Herbicidal effect on B: Japanese bulrush (grade 0-5) (Japanese bulrush) | herbicidal effect grade, M: velvetleaf (velvetleaf) | herbicidal effect grade, G: green foxtail (green foxtail) | herbicidal effect rating, O: lambsquarters (lambsquarters [4]; [5]) | herbicidal effect grade, P: chickweed (chickweed) | other results
CCCC(=O)Oc1c(C)nn(C)c(=O)c1-c1c(-c2ccc(OCC)cc2)sc2ccccc12 [1-014] | 0 (Herbicidal rate of 5% or less (almost no effect)) | 0 (Herbicidal rate of 5% or less (almost no effect)) | 0 (Herbicidal rate of 5% or less (almost no effect)) | 3 (Herbicidal rate of 40% or more and less than 70%) | 0 (Herbicidal rate of 5% or less (almost no effect)) | 3 (Herbicidal rate of 40% or more and less than 70%) | 3 (Herbicidal rate of 40% or more and less than 70%) | 2 (Herbicidal rate of 20% or more and less than 40%) | 0 (Herbicidal rate of 5% or less (almost no effect)) | 0 (Herbicidal rate of 5% or less (almost no effect)) | 0 (Herbicidal rate of 5% or less (almost no effect)) | 5 (Herbicidal rate of 90% or more (almost completely withered)) | 4 (Herbicidal rate of 70% or more and less than 90%) | 4 (Herbicidal rate of 70% or more and less than 90%) | 2 (Herbicidal rate of 20% or more and less than 40%) | 5 (Herbicidal rate of 90% or more (almost completely withered)) | –
CCCOc1ccccc1-c1sc2ccccc2c1-c1c(O)c(C)nn(C)c1=O [1-015] | 4 (Herbicidal rate of 70% or more and less than 90%) | 5 (Herbicidal rate of 90% or more (almost completely withered)) | 3 (Herbicidal rate of 40% or more and less than 70%) | 3 (Herbicidal rate of 40% or more and less than 70%) | 3 (Herbicidal rate of 40% or more and less than 70%) | 4 (Herbicidal rate of 70% or more and less than 90%) | 2 (Herbicidal rate of 20% or more and less than 40%) | 0 (Herbicidal rate of 5% or less (almost no effect)) | 0 (Herbicidal rate of 5% or less (almost no effect)) | 3 (Herbicidal rate of 40% or more and less than 70%) | 0 (Herbicidal rate of 5% or less (almost no effect)) | 3 (Herbicidal rate of 40% or more and less than 70%) | 5 (Herbicidal rate of 90% or more (almost completely withered)) | 4 (Herbicidal rate of 70% or more and less than 90%) | 0 (Herbicidal rate of 5% or less (almost no effect)) | 5 (Herbicidal rate of 90% or more (almost completely withered)) | –
Cc1nn(C)c(=O)c(-c2c(-c3ccccc3OC(F)(F)F)sc3ccccc23)c1O [1-030] | 1 (Herbicidal rate of 5% or more and less than 20%) | 5 (Herbicidal rate of 90% or more (almost completely withered)) | 3 (Herbicidal rate of 40% or more and less than 70%) | 1 (Herbicidal rate of 5% or more and less than 20%) | 5 (Herbicidal rate of 90% or more (almost completely withered)) | 4 (Herbicidal rate of 70% or more and less than 90%) | 3 (Herbicidal rate of 40% or more and less than 70%) | 5 (Herbicidal rate of 90% or more (almost completely withered)) | 3 (Herbicidal rate of 40% or more and less than 70%) | 5 (Herbicidal rate of 90% or more (almost completely withered)) | 1 (Herbicidal rate of 5% or more and less than 20%) | 5 (Herbicidal rate of 90% or more (almost completely withered)) | 5 (Herbicidal rate of 90% or more (almost completely withered)) | 5 (Herbicidal rate of 90% or more (almost completely withered)) | 5 (Herbicidal rate of 90% or more (almost completely withered)) | 5 (Herbicidal rate of 90% or more (almost completely withered)) | –
CCCC(=O)Oc1c(C)nn(C)c(=O)c1-c1c(-c2ccc(C(C)=NOC)cc2)sc2ccccc12 [1-044] | 0 (Herbicidal rate of 5% or less (almost no effect)) | 0 (Herbicidal rate of 5% or less (almost no effect)) | 4 (Herbicidal rate of 70% or more and less than 90%) | 4 (Herbicidal rate of 70% or more and less than 90%) | 5 (Herbicidal rate of 90% or more (almost completely withered)) | 4 (Herbicidal rate of 70% or more and less than 90%) | 1 (Herbicidal rate of 5% or more and less than 20%) | 4 (Herbicidal rate of 70% or more and less than 90%) | 2 (Herbicidal rate of 20% or more and less than 40%) | 2 (Herbicidal rate of 20% or more and less than 40%) | 0 (Herbicidal rate of 5% or less (almost no effect)) | 5 (Herbicidal rate of 90% or more (almost completely withered)) | 5 (Herbicidal rate of 90% or more (almost completely withered)) | 5 (Herbicidal rate of 90% or more (almost completely withered)) | 4 (Herbicidal rate of 70% or more and less than 90%) | 5 (Herbicidal rate of 90% or more (almost completely withered)) | –
Cc1nn(C)c(=O)c(-c2c(-c3ccc(OCCF)cc3)sc3ccc(F)cc23)c1O [2-047] | – | – | 4 (Herbicidal rate of 70% or more and less than 90%) | 0 (Herbicidal rate of 5% or less (almost no effect)) | – | – | 2 (Herbicidal rate of 20% or more and less than 40%) | – | – | – | – | 3 (Herbicidal rate of 40% or more and less than 70%) | – | – | – | – | herbicidal effect rating, J: blackgrass (blackgrass; 320 g/ha): 0 (Herbicidal rate of 5% or less (almost no effect)); herbicidal effect rating, L: windgrass (windgrass; 320 g/ha): 0 (Herbicidal rate of 5% or less (almost no effect)); effect on Italian ryegrass (K) (Italian ryegrass [1]; 3 weeks after application): 4 (Herbicidal rate of 70% or more and less than 90%); effect on lambsquarters (O) (lambsquarters [2]; 3 weeks after application): 4 (Herbicidal rate of 70% or more and less than 90%); herbicidal effect rating, K: Italian ryegrass (Italian ryegrass [3]; 320 g/ha): 1 (Herbicidal rate of 5% or more and less than 20%); herbicidal effect rating, F: southern crabgrass (southern crabgrass; 320 g/ha): 5 (Herbicidal rate of 90% or more (almost completely withered)); herbicidal effect rating, I: wild oat (wild oat; 320 g/ha): 2 (Herbicidal rate of 20% or more and less than 40%); effect on velvetleaf (M) (velvetleaf; 3 weeks after application): 5 (Herbicidal rate of 90% or more (almost completely withered)); effect on green foxtail (G) (green foxtail; 3 weeks after application): 5 (Herbicidal rate of 90% or more (almost completely withered)); herbicidal effect rating, O: lambsquarters (lambsquarters [4]; 320 g/ha): 5 (Herbicidal rate of 90% or more (almost completely withered))
